Publication PMC4754331, “Programming of metabolic effects in C57BL/6JxFVB mice by in utero and lactational exposure to perfluorooctanoic acid” (Archives of Toxicology, 2015)

Key:
C57BL/6JxFVB hybrid mice [1] = assay: Offspring body weight and growth after perinatal exposure; assay type: in vivo; design: key to Time of effect: P: permanent effect on body weight throughout study; D: delayed (late onset) of effect; T: transient effect; E: effect observed during treatment; conditions: for Emax: Mus musculus
Method: PFOA was obtained as sodium perfluoro-n-octanoate (PFOA-Na; CAS No. 335-95-5, purity >99 %) and kindly provided by Wellington Laboratories Inc., Ontario, Canada. PFOA-Na was dissolved in acetone and mixed with the diet (NIH-07, Research Diet Services, Wijk bij Duurstede, The Netherlands). Thereafter, acetone was allowed to evaporate, and this master mixture was serially diluted with a factor 3–3.3 by adding NIH-07, and afterward, the diet was pelleted. In this way, seven diet groups and a control NIH-07 (blank acetone was added) were obtained, aiming at concentrations of 0, 0.017, 0.056, 0.17, 0.56, 1.7, 5.6 and 17 mg/kg PFOA in feed, which corresponded to 0, 3, 10, 30, 100, 300, 1000 and 3000 µg/kg bw based on an average food consumption of 4.5 g per mouse (average body weight of 25 g) per day. PFOA concentrations in test diets were confirmed by isotope dilution liquid chromatography mass spectrometry after extraction with methanol (8402, JT Baker, Deventer the Netherlands) and a cleanup with carbon solid phase extraction (ENVI Carb, 57210-U, Supelco, Zwijndrecht, the Netherlands). Actual PFOA concentrations in the food were 15–30 % lower than the nominal values. The non-purified soy-based NIH-07 was chosen because it was originally designed to optimize gestation, lactation and growth of rodents, and avoiding natural phytoestrogens in the diet may have confounding effects (Ruhlen et al. [2008]). Estrogenic and anti-estrogenic activity for this diet was previously analyzed to be low and absent, respectively (van Esterik et al. [2014]).
A high fat diet (D12451, Research Diet Services, Wijk bij Duurstede, The Netherlands), containing 45 kcal % fat (lard) compared with 15 kcal % fat in the NIH-07 diet, was given to all F1 mice during the final weeks of the study (21–28 weeks of age).
After an acclimatization period of 1 week, female F0 mice were fed experimental diets explained above starting 2 weeks before mating and continued during mating (1 week), gestation (3 weeks) and lactation (3 weeks). Each dose group had six F0 females, which were mated three by three with two F0 males for each dose group. […] For every dose group, on average 9 mice per sex (range 6–10) were included for follow-up through juvenile and adult stages, selecting pups proportionally from available litters. F1 males were single-housed, and F1 females were housed in pairs from the same litter in standard Macrolon type I cages. Body weight was measured at postnatal day (PND) 4, 7, 14 and 21 and weekly from 5 weeks of age continuing until the end of the study. Food consumption could not be recorded reliably due to high spillage.
Growth was calculated by dividing body weight of subsequent weeks by body weight at week 5, i.e., at the start of the F1 follow-up.

C57BL/6JxFVB hybrid mice [2] = assay: Tibia composition/function by pQCT; assay type: in vivo; conditions: for Emax: Mus musculus
[3] = cited from earlier work
[4] = cited from earlier work; remark: listed apart in the source
C57BL/6JxFVB hybrid mice [5] = assay: Spontaneous locomotor activity test; assay type: in vivo; conditions: males and females; 300 µg/kg vs control; data not shown
Method: One week later, at 20 weeks of age, an insulin tolerance test (ITT) was performed in the same animals as used for the GTT. Mice were not fasted to avoid low glucose baseline levels which, after an insulin injection, could lead to hypoglycemia. At the start of the experiment, a baseline blood sample was taken (0 min). […] The experiment was performed over two morning sessions, with 1.75 h between the first and last tested animal in each session, and animals were treated in a random order. At the age of 22–25 weeks, control and 300 µg/kg bw/d animals were used for a spontaneous locomotor activity test. After an acclimatization period of minimal 6 h, activity of the mice was continuously registered on four parallel platforms for 36 h (males) or 60 h (females), starting at the beginning of the dark phase (6.30 PM) of the first day.
Some measurements included only control and one or two dose groups and could therefore not be analyzed as dose–responses. GTT was therefore evaluated by repeated-measures or nested (to account for litter covariance) two-way ANOVAs (Graphpad Prism 5.0, R) to detect differences at the different time points and between the areas under the curve (AUC). Activity measurement, ucp1 expression, WAT adipocyte size and the proxy for cell number were also tested with a nested ANOVA (R). […]

C57BL/6JxFVB hybrid mice [6] = assay: Histopathology of liver; assay type: in vivo; conditions: for Liver nuclear dysmorphology: count of individuals with Grade 0 / Liver nuclear dysmorphology: count of individuals with Grades 1, 2: p = 0.06 vs control
[7] = C57BL/6JxFVB, 3-10-30-100-300-1000-3000 µg/kg bw/d, diet, 2w pre-mating-PND21, this study
[8] = F1 females, CES 5 %, high fat diet
[9] = males, 300 and 3000 µg PFOA/kg body weight/day combined, p = 0.07 vs control

O=C(O)C(F)(F)C(F)(F)C(F)(F)C(F)(F)C(F)(F)C(F)(F)C(F)(F)F [PFOA, Perfluorooctanoic acid]
Endpoint bw (age) F (C57BL/6JxFVB hybrid mice [1]; [7]): ↓ PND4–w27
Endpoint bw (age) M (C57BL/6JxFVB hybrid mice [1]; [7]): ↓ PND4–w23
Time of effect (C57BL/6JxFVB hybrid mice [1]; C57BL/6JxFVB, this study, in males not observed during final 2 weeks (w24–25) under high fat diet): P^d
Body weight week 21: BMDL (C57BL/6JxFVB hybrid mice [1]; F1 females, CES 5 %): 1239 µg/kg bw/d
Body weight week 21: BMDU (C57BL/6JxFVB hybrid mice [1]; F1 females, CES 5 %): 3595 µg/kg bw/d
Body weight week 27: BMDL (C57BL/6JxFVB hybrid mice [1]; [8]): 849 µg/kg bw/d
Body weight week 27: BMDU (C57BL/6JxFVB hybrid mice [1]; [8]): 5645 µg/kg bw/d
Body weight week 21: BMDL (C57BL/6JxFVB hybrid mice [1]; F1 males, CES 5 %): 1024 µg/kg bw/d
Body weight week 21: BMDU (C57BL/6JxFVB hybrid mice [1]; F1 males, CES 5 %): 3457 µg/kg bw/d
Growth week 25/5: BMDL (C57BL/6JxFVB hybrid mice [1]; F1 males, CES 5 %): 948 µg/kg bw/d
Growth week 25/5: BMDU (C57BL/6JxFVB hybrid mice [1]; F1 males, CES 5 %): 2383 µg/kg bw/d
Emax (C57BL/6JxFVB hybrid mice [1]; F1 females, read-out: Body weight week 21: max effect size): -8%
Emax (C57BL/6JxFVB hybrid mice [1]; F1 females, read-out: Body weight week 27: max effect size): -9.1%
Emax (C57BL/6JxFVB hybrid mice [1]; F1 females, read-out: Growth week 27/5: max effect size): -8.6%
Emax (C57BL/6JxFVB hybrid mice [1]; F1 males, read-out: Body weight week 21: max effect size): -9.1%
Emax (C57BL/6JxFVB hybrid mice [1]; F1 males, read-out: Growth week 25/5: max effect size): 11%
Body weight PND4: CED (C57BL/6JxFVB hybrid mice [1]; females, CES −0.05, Fig. 2c): 0.0628 µg/kg body weight/day
Body weight PND4: CEDLbt (C57BL/6JxFVB hybrid mice [1]; females, CES −0.05, Fig. 2c): 2.004e−08 µg/kg body weight/day
Body weight PND4: CEDUbt (C57BL/6JxFVB hybrid mice [1]; females, CES −0.05, Fig. 2c): 42.23 µg/kg body weight/day
Body weight week 27: CED (C57BL/6JxFVB hybrid mice [1]; females, CES −0.05, Fig. 2d): 1560 µg/kg body weight/day
Body weight week 27: CEDLbt (C57BL/6JxFVB hybrid mice [1]; females, CES −0.05, Fig. 2d): 849.1 µg/kg body weight/day
Body weight week 27: CEDUbt (C57BL/6JxFVB hybrid mice [1]; females, CES −0.05, Fig. 2d): 5645 µg/kg body weight/day
Body weight from PND4 until adulthood (week 21) (C57BL/6JxFVB hybrid mice [1]; females, standard diet): dose-dependently decreased
Body weight at PND4 (C57BL/6JxFVB hybrid mice [1]; males): dose-dependent decrease
Body weight PND4: CEDLbt (C57BL/6JxFVB hybrid mice [1]; males, CES −0.05, Fig. 2a): 1e−12 µg/kg body weight/day
Body weight PND4: CEDUbt (C57BL/6JxFVB hybrid mice [1]; males, CES −0.05, Fig. 2a): 42.23 µg/kg body weight/day
Body weight PND4: CED (C57BL/6JxFVB hybrid mice [1]; males, CES −0.05, Fig. 2a, unit from legend): 0.0039 µg/kg body weight/day
Body weight in weeks 22 and 23 (C57BL/6JxFVB hybrid mice [1]; males, high fat diet, data not shown): dose-dependent decrease
Tibia ability to resist torsion: BMDL (C57BL/6JxFVB hybrid mice [2]; F1 females, CES 5 %): 917 µg/kg bw/d
Tibia ability to resist torsion: BMDU (C57BL/6JxFVB hybrid mice [2]; F1 females, CES 5 %): 10,316 µg/kg bw/d
Tibia bending strength: BMDL (C57BL/6JxFVB hybrid mice [2]; F1 females, CES 5 %): 888 µg/kg bw/d
Tibia bending strength: BMDU (C57BL/6JxFVB hybrid mice [2]; F1 females, CES 5 %): 3371 µg/kg bw/d
Tibia cortical density: BMDL (C57BL/6JxFVB hybrid mice [2]; F1 females, CES 5 %): 2866 µg/kg bw/d
Tibia cortical density: BMDU (C57BL/6JxFVB hybrid mice [2]; F1 females, CES 5 %): 6949 µg/kg bw/d
Tibia trabecular area: BMDL (C57BL/6JxFVB hybrid mice [2]; F1 females, CES 5 %): 914 µg/kg bw/d
Tibia trabecular area: BMDU (C57BL/6JxFVB hybrid mice [2]; F1 females, CES 5 %): 3037 µg/kg bw/d
Tibia cortical density: BMDL (C57BL/6JxFVB hybrid mice [2]; F1 males, CES 5 %): 2635 µg/kg bw/d
Tibia cortical density: BMDU (C57BL/6JxFVB hybrid mice [2]; F1 males, CES 5 %): 27,520 µg/kg bw/d
Emax (C57BL/6JxFVB hybrid mice [2]; F1 females, read-out: Tibia ability to resist torsion: max effect size): -8.3%
Emax (C57BL/6JxFVB hybrid mice [2]; F1 females, read-out: Tibia bending strength: max effect size): -9.9%
Emax (C57BL/6JxFVB hybrid mice [2]; F1 females, read-out: Tibia cortical density: max effect size): -3.7%
Emax (C57BL/6JxFVB hybrid mice [2]; F1 females, read-out: Tibia trabecular area: max effect size): -10%
Emax (C57BL/6JxFVB hybrid mice [2]; F1 males, read-out: Tibia cortical density: max effect size): -3.4%
Elimination half-life in adult mice ([3]; adult mice, ref Lau et al. [2006]): 17 days
Time to steady-state level in serum of mice ([3]; ref Lau et al. [2006]): ≤ 1 week
Lowering of levels in offspring after maternal exposure was stopped ([3]; within 6 weeks, ref Wolf et al. ([2007])): 40 times
Level in adult human serum samples ([4]; detected globally, ref Calafat et al. [2007]): 3.6 to 4.3 ng/mL
Level in serum of pregnant mothers ([4]; ref Grandjean et al. [2012]): 2.6 to 4.0 ng/mL
Level in cord plasma ([4]; ref de Cock et al. [2014]): 0.3 to 2.7 ng/mL
Energy expenditure: physical activity (C57BL/6JxFVB hybrid mice [5]): did not show an effect
Liver eosinophilic alteration: count of individuals with Grades 0, 1 (C57BL/6JxFVB hybrid mice [6]; females, 300 and 3000 combined): 11
Liver eosinophilic alteration: count of individuals with Grades 2, 3 (C57BL/6JxFVB hybrid mice [6]; females, 300 and 3000 combined): 8
Liver fatty change: count of individuals with Grade 0 (C57BL/6JxFVB hybrid mice [6]; females, 300 and 3000 combined): 17
Liver fatty change: count of individuals with Grades 1, 2, 3 (C57BL/6JxFVB hybrid mice [6]; females, 300 and 3000 combined): 2
Liver nuclear dysmorphology: count of individuals with Grade 0 (C57BL/6JxFVB hybrid mice [6]; females, 300 and 3000 combined): 12
Liver nuclear dysmorphology: count of individuals with Grades 1, 2 (C57BL/6JxFVB hybrid mice [6]; females, 300 and 3000 combined): 7
Liver eosinophilic alteration: count of individuals with Grade 0 (C57BL/6JxFVB hybrid mice [6]; [9]): 14
Liver eosinophilic alteration: count of individuals with Grades 1, 2 (C57BL/6JxFVB hybrid mice [6]; [9]): 6
Liver fatty change: count of individuals with Grade 0 (C57BL/6JxFVB hybrid mice [6]; males, 300 and 3000 combined): 16
Liver fatty change: count of individuals with Grades 1, 2, 3, 4 (C57BL/6JxFVB hybrid mice [6]; males, 300 and 3000 combined): 4
Liver nuclear dysmorphology: count of individuals with Grade 0 (C57BL/6JxFVB hybrid mice [6]; males, 300 and 3000 combined): 13
Liver nuclear dysmorphology: count of individuals with Grades 1, 2 (C57BL/6JxFVB hybrid mice [6]; males, 300 and 3000 combined): 7
